{
  "source": "paper PMC6366416",
  "about": "“Synthesis and in vitro anticancer activity of certain novel 1-(2-methyl-6-arylpyridin-3-yl)-3-phenylureas as apoptosis-inducing agents” (Journal of Enzyme Inhibition and Medicinal Chemistry, 2019)",
  "assay_in_all_cases": "NCI one-dose SRB growth inhibition",
  "assay_type_in_all_cases": "cell-based",
  "key": {"[1]": {"test_system": "SN12C", "settings": "Homo sapiens, Renal Cancer, 48 h, read-out: GI% SN12C", "in_short": "(§1)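 NCI DTP screen; 48 h drug exposure; SRB read-out of cell growth/viability; nine-tumour-type panel.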"}, "[2]": {"test_system": "MALME-3M", "settings": "Homo sapiens, Melanoma, 48 h, read-out: GI% MALME-3M", "in_short": "as §1"}, "[3]": {"test_system": "SK-MEL-5", "settings": "Homo sapiens, Melanoma, 48 h, read-out: GI% SK-MEL-5", "in_short": "as §1"}, "[4]": {"test_system": "HCC-2998", "settings": "Homo sapiens, Colon Cancer, 48 h, read-out: GI% HCC-2998", "in_short": "as §1"}, "[5]": {"test_system": "OVCAR-3", "settings": "Homo sapiens, OVCAR-3, 48 h, Ovarian Cancer, read-out: GI% OVCAR-3", "in_short": "as §1"}, "[6]": {"test_system": "SF-268", "settings": "Homo sapiens, CNS Cancer, 48 h, read-out: GI% SF-268", "in_short": "as §1"}, "[7]": {"test_system": "SNB-75", "settings": "Homo sapiens, CNS Cancer, 48 h, read-out: GI% SNB-75", "in_short": "as §1"}, "[8]": {"test_system": "T-47D", "settings": "Homo sapiens, T47D, 48 h, Breast Cancer, read-out: GI% T-47D", "in_short": "as §1"}, "[9]": {"test_system": "RXF 393", "settings": "Homo sapiens, Renal Cancer, 48 h, read-out: GI% RXF 393", "in_short": "as §1"}, "[10]": {"test_system": "MDA-MB-231", "settings": "Homo sapiens, Breast Cancer, 48 h, read-out: GI% MDA-MB-231", "in_short": "as §1"}, "[11]": {"test_system": "HT29", "settings": "Homo sapiens, HT-29, 48 h, Colon Cancer, read-out: GI% HT29", "in_short": "as §1"}, "[12]": {"test_system": "IGROV1", "settings": "Homo sapiens, IGROV-1, Ovarian Cancer, 48 h, read-out: GI% IGROV1", "in_short": "as §1"}, "[13]": {"test_system": "HS 578T", "settings": "Homo sapiens, Breast Cancer, 48 h, read-out: GI% HS 578T", "in_short": "as §1"}, "[14]": {"test_system": "MOLT-4", "settings": "Homo sapiens, Leukemia, 48 h, read-out: GI% MOLT-4", "in_short": "as §1"}, "[15]": {"test_system": "OVCAR-5", "settings": "Homo sapiens, Ovarian Cancer, 48 h, read-out: GI% OVCAR-5", "in_short": "as §1"}, "[16]": {"test_system": "BT-549", "settings": "Homo sapiens, Breast Cancer, 48 h, read-out: GI% BT-549", "in_short": "as §1"}, "[17]": {"test_system": "UACC-62", "settings": "Homo sapiens, UACC-62, 48 h, Melanoma, read-out: GI% UACC-62", "in_short": "as §1"}, "[18]": {"test_system": "TK-10", "settings": "Homo sapiens, Renal Cancer, 48 h, read-out: GI% TK-10", "in_short": "as §1"}, "[19]": {"test_system": "A498", "settings": "Homo sapiens, Renal Cancer, 48 h, read-out: GI% A498", "in_short": "as §1"}, "[20]": {"test_system": "SR", "settings": "Homo sapiens, 48 h, Leukemia, read-out: GI% SR", "in_short": "as §1"}, "[21]": {"test_system": "SF-539", "settings": "Homo sapiens, CNS Cancer, 48 h, read-out: GI% SF-539", "in_short": "as §1"}, "[22]": {"test_system": "NCI/ADR-RES", "settings": "Homo sapiens, Ovarian Cancer, 48 h, read-out: GI% NCI/ADR-RES", "in_short": "as §1"}, "[23]": {"test_system": "HOP-62", "settings": "Homo sapiens, Non-Small Cell Lung Cancer, 48 h, read-out: GI% HOP-62", "in_short": "as §1"}, "[24]": {"test_system": "NCI-H460", "settings": "Homo sapiens, Non-Small Cell Lung Cancer, 48 h, read-out: GI% NCI-H460", "in_short": "as §1"}, "[25]": {"test_system": "U251", "settings": "Homo sapiens, U-251, CNS Cancer, 48 h, read-out: GI% U251", "in_short": "as §1"}, "[26]": {"test_system": "HOP-92", "settings": "Homo sapiens, Non-Small Cell Lung Cancer, 48 h, read-out: GI% HOP-92", "in_short": "as §1"}, "[27]": {"test_system": "786-0", "settings": "Homo sapiens, Renal Cancer, 48 h, read-out: GI% 786-0", "in_short": "as §1"}, "[28]": {"test_system": "UO-31", "settings": "Homo sapiens, Renal Cancer, 48 h, read-out: GI% UO-31", "in_short": "as §1"}, "[29]": {"test_system": "HCT-116", "settings": "Homo sapiens, HCT-116, 48 h, Colon Cancer, read-out: GI% HCT-116", "in_short": "as §1"}, "[30]": {"test_system": "UACC-257", "settings": "Homo sapiens, UACC-257, read-out: GI% UACC-257, Melanoma, 48 h", "in_short": "as §1"}, "[31]": {"test_system": "K-562", "settings": "Homo sapiens, K562, 48 h, Leukemia, read-out: GI% K-562", "in_short": "as §1"}, "[32]": {"test_system": "NCI-H23", "settings": "Homo sapiens, Non-Small Cell Lung Cancer, 48 h, read-out: GI% NCI-H23", "in_short": "as §1"}, "[33]": {"test_system": "PC-3", "settings": "Homo sapiens, PC-3, 48 h, Prostate, read-out: GI% PC-3", "in_short": "as §1"}},
  "data": [
    {"compound": "Cc1nc(-c2ccc(Cl)cc2)ccc1NC(=O)Nc1cccc(C(F)(F)F)c1", "note": "[Compound 5e, 1-(6-(4-Chlorophenyl)-2-methylpyridin-3-yl)-3-(3-(trifluoromethyl)phenyl)urea]", "values": [
      {"measurement": "inhibition at 10 µM", "setting": "[1]", "result": "< 10", "unit": "%"},
      {"measurement": "inhibition at 10 µM", "setting": "[2]", "result": "< 10", "unit": "%"},
      {"measurement": "inhibition at 10 µM", "setting": "[3]", "result": "< 10", "unit": "%"},
      {"measurement": "inhibition at 10 µM", "setting": "[4]", "result": "< 10", "unit": "%"},
      {"measurement": "inhibition at 10 µM", "setting": "[5]", "result": "< 10", "unit": "%"},
      {"measurement": "inhibition at 10 µM", "setting": "[6]", "result": "< 10", "unit": "%"},
      {"measurement": "inhibition at 10 µM", "setting": "[7]", "result": "< 10", "unit": "%"},
      {"measurement": "inhibition at 10 µM", "setting": "[8]", "result": 13, "unit": "%"},
      {"measurement": "inhibition at 10 µM", "setting": "[9]", "result": "< 10", "unit": "%"},
      {"measurement": "inhibition at 10 µM", "setting": "[10]", "result": "< 10", "unit": "%"},
      {"measurement": "inhibition at 10 µM", "setting": "[11]", "result": 25, "unit": "%"},
      {"measurement": "inhibition at 10 µM", "setting": "[12]", "result": "< 10", "unit": "%"},
      {"measurement": "inhibition at 10 µM", "setting": "[13]", "result": "< 10", "unit": "%"},
      {"measurement": "inhibition at 10 µM", "setting": "[14]", "result": 12, "unit": "%"},
      {"measurement": "inhibition at 10 µM", "setting": "[15]", "result": "< 10", "unit": "%"},
      {"measurement": "inhibition at 10 µM", "setting": "[16]", "result": "< 10", "unit": "%"},
      {"measurement": "inhibition at 10 µM", "setting": "[17]", "result": "< 10", "unit": "%"},
      {"measurement": "inhibition at 10 µM", "setting": "[18]", "result": "< 10", "unit": "%"},
      {"measurement": "inhibition at 10 µM", "setting": "[19]", "result": "< 10", "unit": "%"},
      {"measurement": "inhibition at 10 µM", "setting": "[20]", "result": 41, "unit": "%"},
      {"measurement": "inhibition at 10 µM", "setting": "[21]", "result": "< 10", "unit": "%"},
      {"measurement": "inhibition at 10 µM", "setting": "[22]", "result": "< 10", "unit": "%"},
      {"measurement": "inhibition at 10 µM", "setting": "[23]", "result": "< 10", "unit": "%"},
      {"measurement": "inhibition at 10 µM", "setting": "[24]", "result": 34, "unit": "%"},
      {"measurement": "inhibition at 10 µM", "setting": "[25]", "result": 24, "unit": "%"},
      {"measurement": "inhibition at 10 µM", "setting": "[26]", "result": "< 10", "unit": "%"},
      {"measurement": "inhibition at 10 µM", "setting": "[27]", "result": "< 10", "unit": "%"},
      {"measurement": "inhibition at 10 µM", "setting": "[28]", "result": "< 10", "unit": "%"},
      {"measurement": "inhibition at 10 µM", "setting": "[29]", "result": 26, "unit": "%"},
      {"measurement": "inhibition at 10 µM", "setting": "[30]", "result": "< 10", "unit": "%"},
      {"measurement": "inhibition at 10 µM", "setting": "[31]", "result": 20, "unit": "%"},
      {"measurement": "inhibition at 10 µM", "setting": "[32]", "result": "< 10", "unit": "%"},
      {"measurement": "inhibition at 10 µM", "setting": "[33]", "result": 20, "unit": "%"}
    ]}
  ]
}
